Patent US11090304B2 (Amgen Inc., priority 2018, dated 2021)
Like-named read-outs stand apart in the source and are kept apart here.

Legend:
[1] = molecular target: GDP-bound KRAS protein (aa 1-169), containing both G12C and C118A amino acid substitutions (Homo sapiens, UniProt P01116, C118A/G12C); assay: Coupled nucleotide exchange assay (SOS-mediated, AlphaScreen); assay type: biochemical
[2] = tested on: Phosphorylation of ERK1/2 in MIA PaCa-2 cells; assay: Phospho-ERK1/2 MSD assay in MIA PaCa-2 cells; assay type: cell-based
How it was run: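 MSD electrochemiluminescence readout of phospho-ERK1/2 in whole-cell lysates, IC50 by 4-parameter logistic fit. Compound titrations were applied for 2 or 4 h at 37 °C, 5% CO2, followed by 10 ng/mL EGF stimulation for 10 min before lysis.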

[3] = Homo sapiens, MIA PaCa-2, 2 h, read-out: p-ERK IC50 (2 h; MIA PaCa-2), 2 h compound treatment
[4] = read-out: p-ERK IC50 (2 h; MIA PaCa-2), 2 h compound treatment

Chain of GDP-bound KRAS protein (aa 1-169), containing both G12C and C118A amino acid substitutions (P01116 1-169 isoform P01116-2 G12C/C118A): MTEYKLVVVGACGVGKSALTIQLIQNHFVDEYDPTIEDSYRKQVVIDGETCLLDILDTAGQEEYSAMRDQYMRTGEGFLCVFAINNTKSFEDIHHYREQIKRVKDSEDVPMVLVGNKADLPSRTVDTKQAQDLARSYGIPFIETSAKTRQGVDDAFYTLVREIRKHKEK

## C=CC(=O)N1CCN(c2nc(=O)n(-c3c(C)cc(CO)cc3C(C)C)c3nc(-c4ccccc4F)c(Cl)cc23)[C@@H](C)C1 (single isomer, unassigned) [Example 80-2-2]
[1]; 5 min compound pre-incubation
  Coupled exchange IC50 (5 min): 0.048 | nda μM
[2]; [3]
  IC50: 47 nM

## C=CC(=O)N1CCN(c2nc(=O)n(-c3c(C)ccnc3C(C)C)c3nc(-c4c(F)ccc5[nH]ncc45)c(Cl)cc23)[C@@H](C)C1 (single isomer, unassigned) [Example 82-2]
[1]; 5 min compound pre-incubation
  Coupled exchange IC50 (5 min): 0.096 | nda μM
[2]; [3]
  IC50: 239 nM

## C=CC(=O)N1CCN(c2nc(=O)n(-c3c(C(C)C)ncc(O)c3C)c3nc(-c4ccccc4F)c(Cl)cc23)[C@@H](C)C1 (single isomer, unassigned) [Example 83-2]
[1]; 5 min compound pre-incubation
  Coupled exchange IC50 (5 min): 0.035 | nda μM
[2]; [3]
  IC50: 84 nM

## C=CC(=O)N1CCN(c2nc(=O)n(-c3c(CO)ccnc3C(C)C)c3nc(-c4ccccc4F)c(Cl)cc23)[C@@H](C)C1 (single isomer, unassigned) [Example 84-2]
[1]; 5 min compound pre-incubation
  Coupled exchange IC50 (5 min): 0.058 | nda μM
[2]; [3]
  IC50: 43 nM

## C=CC(=O)N1CCN(c2nc(=O)n(-c3ccccc3C(C)C)c3c(C)c(-c4c(O)cccc4F)c(Cl)cc23)[C@@H](C)C1 (single isomer, unassigned) [Example 90-2]
[1]; 5 min compound pre-incubation
  Coupled exchange IC50 (5 min): 0.151 µM
[1]; 2 h compound pre-incubation
  Coupled exchange IC50 (2 h): 175 nM
[2]; read-out: p-ERK IC50 (4 h; MIA PaCa-2), 4 h compound treatment
  IC50: 111 nM

## C=CC(=O)N1CCN(c2nc(=O)n(-c3ccccc3C(C)C)c3nc(-c4c(F)cccc4C#N)c(Cl)cc23)[C@@H](C)C1 (single isomer, unassigned) [Example 98-1]
[1]; 5 min compound pre-incubation
  Coupled exchange IC50 (5 min): 0.193 | nda μM
[2]; [3]
  IC50: 155 nM

## C=CC(=O)N1CCN(c2nc(=O)n(-c3c(C)cccc3C(C)C)c3nc(-c4ccccc4F)c(C)cc23)[C@@H](C)C1 (single isomer, unassigned) [Example 102-2]
[1]; 5 min compound pre-incubation
  Coupled exchange IC50 (5 min): 0.182 | nda μM
[2]; [3]
  IC50: 211 nM

## C=CC(=O)N1CCN(c2nc(=O)n(-c3ccccc3C(C)C)c3cc(-c4ccccc4F)c(Cl)nc23)[C@@H](C)C1 (single isomer, unassigned) [Example 110-2]
[1]; 5 min compound pre-incubation
  Coupled exchange IC50 (5 min): 0.071 | nda μM
[2]; [3]
  IC50: 247 nM

## C=CC(=O)N1CCN(c2nc(=O)n(-c3c(C(C)C)ncnc3N(C)C)c3nc(-c4ccccc4F)c(Cl)cc23)[C@@H](C)C1 (single isomer, unassigned) [Example 140-1]
[1]; 5 min compound pre-incubation
  Coupled exchange IC50 (5 min): 0.073 | nda μM
[2]; [3]
  IC50: 47 nM

## C=CC(=O)N1CCN(c2nc(=O)n(-c3c(C(N)=O)cccc3C(C)C)c3nc(-c4ccccc4F)c(Cl)cc23)[C@@H](C)C1 (single isomer, unassigned) [Example 142-2]
[1]; 5 min compound pre-incubation
  Coupled exchange IC50 (5 min): 0.029 | nda μM
[2]; [3]
  IC50: 29 nM

## C=CC(=O)N1CCN(c2nc(=O)n(-c3c(C)ccnc3C(C)C)c3nc(-c4ccccc4F)c(C)nc23)[C@@H](C)C1 (single isomer, unassigned) [Example 143-1]
[1]; 5 min compound pre-incubation
  Coupled exchange IC50 (5 min): 2.72 | nda μM
[2]; [4]
  IC50: 3540 nM

## C=CC(=O)N1CCN(c2nc(=O)n(-c3c(C)ccnc3C(C)C)c3nc(-c4ccccc4F)c(C)nc23)[C@@H](C)C1 (single isomer, unassigned) [Example 143-2]
[1]; 5 min compound pre-incubation
  Coupled exchange IC50 (5 min): 2.43 | nda μM
[2]; [4]
  IC50: 397 nM

## C=CC(=O)N1CCN(c2nc(=O)n(-c3c(N)cccc3C(C)C)c3nc(-c4ccccc4F)c(Cl)cc23)[C@@H](C)C1 (single isomer, unassigned) [Example 155-1]
[1]; 5 min compound pre-incubation
  Coupled exchange IC50 (5 min): 0.038 | nda μM
[2]; [3]
  IC50: 43 nM

## C=CC(=O)N1CCN(c2nc(=O)n(-c3c(C)cccc3C(C)C)c3nc(-c4c(C)ccc5[nH]ncc45)c(F)cc23)[C@@H](C)C1 [68-2, 6-fluoro-7-(5-methyl-1H-indazol-4-yl)-1-(2-methyl-6-(2-propanyl)phenyl)-4-((2S)-2-methyl-4-(2-propenoyl)-1-piperazinyl)pyrido[2,3-d]pyrimidin-2(1H)-one]
[1]; 5 min compound pre-incubation
  Coupled exchange IC50 (5 min): 0.947 | nda μM
[2]; [3]
  IC50: 999 nM

## C=CC(=O)N1CCN(c2nc(=O)n(-c3c(C)cc(CO)cc3C(C)C)c3nc(-c4ccccc4F)c(Cl)cc23)[C@@H](C)C1 [80-2, 6-chloro-7-(2-fluorophenyl)-1-(4-(hydroxymethyl)-2-methyl-6-(2-propanyl)phenyl)-4-((2S)-2-methyl-4-(2-propenoyl)-1-piperazinyl) pyrido[2,3-d] pyrimidin-2(1H)-one]
[1]; 5 min compound pre-incubation
  Coupled exchange IC50 (5 min): 0.11 | nda μM
[2]; [3]
  IC50: 97 nM

## C=CC(=O)N1CCN(c2nc(=O)n(-c3ncccc3CC)c3nc(-c4ccccc4F)c(Cl)cc23)[C@@H](C)C1 [Example 54-15, 6-chloro-1-(3-ethyl-2~ pyridinyl)-7-(2-fluorophenyl)-4-((2S)-2-methyl-4-(2-propenoyl)-1-piperazinyl) pyrido[2,3-d]pyrimidin-2(1H)-one]
[1]; 5 min compound pre-incubation
  Coupled exchange IC50 (5 min): 0.564 | nda μM
[2]; [3]
  IC50: 347 nM

## C=CC(=O)N1CCN(c2nc(=O)n(-c3ncccc3CC)c3nc(-c4c(O)cccc4F)c(Cl)cc23)[C@@H](C)C1 [Example 54-16, 6-chloro-1-(3-ethyl-2-pyridinyl)-7-(2-fluoro-6-hydroxyphenyl)-4-((2S)-2-methyl-4-(2-propenoyl)-1-piperazinyl) pyrido[2,3-d]pyrimidin-2(1H)-one]
[1]; 5 min compound pre-incubation
  Coupled exchange IC50 (5 min): 0.149 | nda μM
[2]; [3]
  IC50: 149 nM

## C=CC(=O)N1CCN(c2nc(=O)n(-c3c(C(C)C)ccnc3C)c3nc(-c4ccccc4F)c(Cl)cc23)[C@@H](C)C1 [Example 54-18, 6-chloro-7-(2-fluorophenyl)-1-(2-methyl-4-(2-propanyl)-3-pyridinyl)-4-((2S)-2-methyl-4-(2-propenoyl)-1-piperazinyl) pyrido[2,3-d]pyrimidin-2(1H)-one]
[1]; 5 min compound pre-incubation
  Coupled exchange IC50 (5 min): 0.087 | nda μM
[2]; [3]
  IC50: 81 nM

## C=CC(=O)N1CCN(c2nc(=O)n(-c3nccnc3C(C)C)c3nc(-c4c(O)cccc4F)c(Cl)cc23)[C@@H](C)C1 [Example 54-21, 6-chloro-7-(2-fluoro-6-hydroxyphenyl)-4-((2S)-2-methyl-4-(2-propenoyl)-1-piperazinyl)-1-(3-(2-propanyl)-2-pyrazinyl) pyrido[2,3-d]pyrimidin-2(1H)-one]
[1]; 5 min compound pre-incubation
  Coupled exchange IC50 (5 min): 1.67 | nda μM
[2]; [3]
  IC50: 2480 nM

## C=CC(=O)N1CCN(c2nc(=O)n(-c3ccnn3C(C)C)c3nc(-c4c(O)cccc4F)c(Cl)cc23)[C@@H](C)C1 [Example 54-25, 6-chloro-7-(2-fluoro-6-hydroxy-phenyl)-4-((2S)-2-methyl-4-(2-propenoyl)-1-piperazinyl)-1-(1-(2-propanyl)-1H-pyrazol-5-yl)pyrido[2,3-d]pyrimidin-2(1H)-one]
[1]; read-out: Coupled exchange IC50 (5 min), 5 min compound pre-incubation
  IC50: 164 nM
[2]; [3]
  IC50: 218 nM

## C=CC(=O)N1CCN(c2nc(=O)n(-c3cncnc3C(C)C)c3nc(-c4c(O)cccc4F)c(Cl)cc23)[C@@H](C)C1 [Example 54-26, 6-chloro-7-(2-fluoro-6-hydroxy-phenyl)-4-((2S)-2-methyl-4-(2-propenoyl)-1-piperazinyl)-1-(4-(2-propanyl)-5-pyrimidinyl) pyrido[2,3-d]pyrimidin-2(1H)-one]
[1]; 5 min compound pre-incubation
  Coupled exchange IC50 (5 min): 0.105 | nda μM
[2]; [3]
  IC50: 220 nM

## C=CC(=O)N1CCN(c2nc(=O)n(-c3ccnn3C3CCC3)c3nc(-c4c(O)cccc4F)c(Cl)cc23)[C@@H](C)C1 [Example 54-28, 6~chloro-1-(1-cyclobutyl-1H-pyrazol-5-yl)-7-(2-fluoro-6-hydroxyphenyl)-4-((2S)-2-methyl-4-(2-propenoyl)-1-piperazinyl) pyrido[2,3-d]pyrimidin-2(1H)-one]
[1]; 5 min compound pre-incubation
  Coupled exchange IC50 (5 min): 0.19 | nda μM
[2]; [3]
  IC50: 245 nM

## C=CC(=O)N1CCN(c2nc(=O)n(-c3ccnn3C3CCC3)c3nc(-c4ccccc4F)c(Cl)cc23)[C@@H](C)C1 [Example 54-29, 6-chloro-1-(1-cyclobutyl-1H-pyrazol-5-yl)-7-(2-fluorophenyl)-4-((2S)-2-methyl-4-(2-propenoyl)-1-piperazinyl) pyrido[2,3-d]pyrimidin-2(1H)-one]
[1]; 5 min compound pre-incubation
  Coupled exchange IC50 (5 min): 0.406 | nda μM
[2]; [3]
  IC50: 717 nM

## C=CC(=O)N1CCN(c2nc(=O)n(-c3ccccc3CC)c3nc(-c4c(O)cccc4F)c(Cl)cc23)[C@@H](C)C1 [Example 54-34, 6-chloro-1-(2-ethylphenyl)-7-(2-fluoro-6-hydroxyphenyl)-4-((2S)-2-methyl-4-(2-propenoyl)-1-piperazinyl) pyrido[2,3-d]pyrimidin-2(1H)-one]
[1]; 5 min compound pre-incubation
  Coupled exchange IC50 (5 min): 0.325 | nda μM
[2]; [3]
  IC50: 97 nM

## C=CC(=O)N1CCN(c2nc(=O)n(-c3ccccc3Cl)c3nc(-c4c(O)cccc4F)c(Cl)cc23)[C@@H](C)C1 [Example 54-35, 6-chloro-1-(2-chlorophenyl)-7-(2-fluoro-6-hydroxyphenyl)-4-((2S)-2-methyl-4-(2-propenoyl)-1-piperazinyl) pyrido[2,3-d]pyrimidin-2(1H)-one]
[1]; 5 min compound pre-incubation
  Coupled exchange IC50 (5 min): 0.582 | nda μM
[2]; [3]
  IC50: 383 nM

## C=CC(=O)N1CCN(c2nc(=O)n(-c3ccncc3C(C)C)c3nc(-c4c(O)cccc4F)c(Cl)cc23)[C@@H](C)C1 [Example 54-36, 6-chloro-7-(2-fluoro-6-hydroxy-phenyl)-4-((2S)-2-methyl-4-(2-propenoyl)-1-piperazinyl)-1-(3-(2-propanyl)-4-pyridinyl) pyrido[2,3-d]pyrimidin-2(1H)-one]
[1]; 5 min compound pre-incubation
  Coupled exchange IC50 (5 min): 0.149 | nda μM
[2]; [3]
  IC50: 158 nM

## C=CC(=O)N1CCN(c2nc(=O)n(-c3nccnc3CC)c3nc(-c4c(O)cccc4F)c(Cl)cc23)[C@@H](C)C1 [Example 54-37, 6-chloro-1-(3-ethyl-2-pyrazinyl)-7-(2-fluoro-6-hydroxy-phenyl)-4-((2S)-2-methyl-4-(2-propenoyl)-1-piperazinyl) pyrido[2,3-d]pyrimidin-2(1H)-one]
[1]; 5 min compound pre-incubation
  Coupled exchange IC50 (5 min): 0.304 | nda μM
[2]; [3]
  IC50: 227 nM
